Laboratory results as given in patent US8940697B2, “Compositions and methods for the treatment of myocardial ischemia/reperfusion injury with Annexin A1 short peptide” (Duke University, priority 2009, dated 2015).
“Also recorded” adds a separate entry of the source.

Key:
male SD rats = experiment: Rat CPB/CA model of myocardial I/R injury (normo- and hyperglycemic); type: in vivo; conditions: for NF-κB activity / IL-6 / TNF-α / Caspase-3 / MPO / Apoptosis / HFABP / cTnI: 3 mg/kg total; for NF-κB activity: myocardial DNA binding activity; for NF-κB activity / IL-6 / TNF-α / Caspase-3 / MPO / Apoptosis / HFABP: 24 h; for IL-6 / TNF-α: myocardial tissue; for Caspase-3 / MPO / Apoptosis: myocardium; for Apoptosis: TUNEL; for HFABP / cTnI: plasma; for cTnI: 24 h post-reperfusion
Protocol: Next, studies were carried out to determine the effectiveness of ANXA1sp on myocardial protection in vivo using a clinically-relevant rodent experimental model of surgical global myocardial ischemia/reperfusion injury. […] Rats were exposed to CPB for 15 minutes before ischemic/reperfusion injury was initiated (i.e., cardioplegic arrest was induced) and maintained for 45 minutes, followed by another 15 minutes of CPB. Animals were weaned from cardiopulmonary bypass and allowed to recover for 24 hours, at which point blood and left ventricular myocardial tissue were harvested for analysis. FIG. 5B is a graph showing the blood glucose levels in rats before and after ischemia. Acute hyperglycemia was induced using dextrose 25% (5 gm/kg) administered preoperatively 0.75 gm intraperitoneally, intraoperatively 0.25 gm in CPB prime and 0.5 gm/hr intravenously, and postoperatively 1 hour after weaning from CPB (intraperitoneally). Perioperative blood glucose levels were maintained at >300 mg/dl. Cardioplegic arrest was induced with cold (4:1) blood cardioplegia. Animals in the AXNA1sp treated group received a total of 3 mg/kg ANXA1sp in 3 equal doses administered before (intraperitoneally), during (intracoronary, mixed with cardioplegia solution), and after CPB (intraperitoneally), respectively. Control animals underwent an identical surgical procedure with vehicle instead of ANXA1sp.
In vivo study: with IACUC approval, male SD rats were randomly assigned to 4 groups in a 2×2 design (n=5/group): normo- and hyperglycemic (20 mM) cardioplegic arrest (CA), each treated with ANXA1sp or vehicle, respectively. All animals underwent 75 min of mild hypothermic CPB (33° C.) with 45 min of CA using blood cardioplegia. Treatment groups received ANXA1sp (Ac-QAW, GenScript, 3 mg/kg total) before (ip), during (with cardioplegia), and after CPB (ip) in equal doses, whereas CA control animals received saline. No animals received insulin. At 24 h post-reperfusion the following efficacy end-points were assessed by investigators blinded to the experimental group: 1) plasma myonecrosis biomarkers—cTnI and HFABP (rat specific ELISA, LifeDiagnostics); 2) myocardial apoptosis—cleaved caspase-3 (immunostaining and Western blot) and TUNEL assays; 3) myocardial inflammation—NF-kB DNA binding activity (ELISA, Panomics) and tissue levels of TNF-α and IL-6 (ELISA, ThermoScientific); and 4) myocardial neutrophil transmigration—myeloperoxidase (MPO) activity (ELISA, ThermoScientific).

NIH 3T3 cells = experiment: LPS-induced NIH 3T3 cells: NF-κB activity, IL-6, cell death; type: cell-based; conditions: LPS+peptide vs LPS, 0, 1, 3 and 6 hours
Protocol: FIG. 2A is a graph showing the effect of ANXA1sp on NF-κB activity over time on NIH 3T3 cells activated with LPS alone and LPS+peptide. FIG. 2B is a graph showing the effect of ANXA1sp on interleukin-6 (IL-6) production over time by NIH 3T3 cells activated with LPS alone and LPS+peptide.
The ANXA1sp was next tested in LPS-induced NIH 3T3 cells to determine if NF-κB activity was inhibited. NIH 3T3 cells were exposed to LPS or LPS+ANXA1sp (LPS+Peptide) for 0, 1, 3 and 6 hours. Cell lysates were obtained and levels of NF-κB activity and IL-6 were measured by ELISA. Cell death was also measured by Trypan blue exclusion.

Question: What does the source list for Ac-Gln-Ala-Trp [ANXA1sp]?
Answer: NF-κB activity (male SD rats; CAHG_SP: hyperglycemic): 1.5 ± 0.5 A.U.; IL-6 (male SD rats; CAHG_SP: hyperglycemic): 107.3 ± 15.5 ng/mg; TNF-α (male SD rats; CAHG_SP: hyperglycemic): 105.6 ± 13.3 ng/mg; Caspase-3 (male SD rats; CAHG_SP: hyperglycemic): 5.9 ± 1.4 A.U.; MPO (male SD rats; CAHG_SP: hyperglycemic): 467.2 ± 72.4 ng/mg; Apoptosis (male SD rats; CAHG_SP: hyperglycemic): 9.5 ± 1.2 %; HFABP (male SD rats; CAHG_SP: hyperglycemic): 12.4 ± 2.6 ng/mL; cTnI (male SD rats; CAHG_SP: hyperglycemic): 2.1 ± 0.5 ng/mL; NF-κB activity (male SD rats; CA_SP: normoglycemic): 0.8 ± 0.04 A.U.; IL-6 (male SD rats; CA_SP: normoglycemic): 38.2 ± 8.1 ng/mg; TNF-α (male SD rats; CA_SP: normoglycemic): 28.8 ± 6.7 ng/mg; Caspase-3 (male SD rats; CA_SP: normoglycemic): 1.9 ± 1.5 A.U.; MPO (male SD rats; CA_SP: normoglycemic): 104.8 ± 6.6 ng/mg; Apoptosis (male SD rats; CA_SP: normoglycemic): 2.4 ± 1.1 %; HFABP (male SD rats; CA_SP: normoglycemic): 1.0 ± 0.3 ng/mL; cTnI (male SD rats; CA_SP: normoglycemic): 1.0 ± 0.7 ng/mL; myocardial apoptosis (TUNEL) (male SD rats; Example 4: acute hyperglycemia, 3 mg/kg, FIG. 7B, 3 mg/kg): attenuated; also recorded: significantly decreased; myocardial MPO (male SD rats; Example 4: acute hyperglycemia, 3 mg/kg, FIG. 8, 3 mg/kg): attenuated; also recorded: significantly decreased; myocardial NF-κB DNA binding activity (male SD rats; Example 4: acute hyperglycemia, 3 mg/kg, FIG. 9, 3 mg/kg): attenuated; also recorded: significantly decreased; myocardial TNF-α (male SD rats; Example 4: acute hyperglycemia, 3 mg/kg, FIG. 10A, 3 mg/kg): attenuated; also recorded: significantly decreased; myocardial IL-6 (male SD rats; Example 4: acute hyperglycemia, 3 mg/kg, FIG. 10B, 3 mg/kg): attenuated; also recorded: significantly decreased; myocardial caspase-3 activity (male SD rats; Example 4: acute hyperglycemia, 3 mg/kg, Western blot, FIG. 7A, 3 mg/kg): attenuated; also recorded: significantly decreased; myonecrosis biomarker HFABP (male SD rats; Example 4: acute hyperglycemia, 3 mg/kg, vs CAHG, FIG. 6B, 3 mg/kg): attenuated; also recorded: significantly decreased; hyperglycemic exacerbation of perioperative myocardial injury (male SD rats; Example 4: cardioplegic arrest and acute hyperglycemia, 3 mg/kg): attenuated; myonecrosis biomarker cTnI (male SD rats; Example 4: cardioplegic arrest and acute hyperglycemia, 3 mg/kg, vs CAHG, FIG. 6A, 3 mg/kg): attenuated; also recorded: significantly decreased; in vivo interaction between ANXA1 and NF-κB p65 subunit (male SD rats; co-immunoprecipitation and confocal co-localization in cardiomyocytes, FIG. 11): significantly induces; also recorded: strongly induced; apoptosis (cell death, Trypan blue exclusion) (NIH 3T3 cells): inhibited; IL-6 (NIH 3T3 cells; ELISA): inhibited; NF-κB activity (NIH 3T3 cells; ELISA of cell lysates): inhibited
